Measured values reported in BindingDB's records for PubMed 8510008 (Eli Lilly, 1993).

How the values were obtained:
[1] = target: 5-hydroxytryptamine receptor 2A (Rattus norvegicus, UniProt P14842)
[2] = target: T1, 5-hydroxytryptamine receptor 2C (Homo sapiens, UniProt P28335)
T1 sequence (P28335 whole entry): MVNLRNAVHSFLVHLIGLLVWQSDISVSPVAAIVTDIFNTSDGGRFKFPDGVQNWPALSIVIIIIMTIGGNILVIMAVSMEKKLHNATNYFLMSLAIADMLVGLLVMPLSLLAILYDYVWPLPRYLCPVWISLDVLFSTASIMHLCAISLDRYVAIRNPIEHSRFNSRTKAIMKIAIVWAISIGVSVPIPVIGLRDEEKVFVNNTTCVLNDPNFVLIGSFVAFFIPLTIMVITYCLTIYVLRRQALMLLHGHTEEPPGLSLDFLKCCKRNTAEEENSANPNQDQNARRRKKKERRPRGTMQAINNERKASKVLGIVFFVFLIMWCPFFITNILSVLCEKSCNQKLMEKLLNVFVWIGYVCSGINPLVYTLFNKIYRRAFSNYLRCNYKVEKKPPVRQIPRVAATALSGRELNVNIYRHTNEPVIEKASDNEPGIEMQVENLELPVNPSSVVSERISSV

[3] = target: 5-hydroxytryptamine receptor 2A (Sus scrofa, UniProt P50129)
[4] = target: 5-hydroxytryptamine receptor 2A (Macaca mulatta, UniProt P50128)
Chain of 5-hydroxytryptamine receptor 2A (Macaca mulatta, UniProt P50128) (P50128 whole entry): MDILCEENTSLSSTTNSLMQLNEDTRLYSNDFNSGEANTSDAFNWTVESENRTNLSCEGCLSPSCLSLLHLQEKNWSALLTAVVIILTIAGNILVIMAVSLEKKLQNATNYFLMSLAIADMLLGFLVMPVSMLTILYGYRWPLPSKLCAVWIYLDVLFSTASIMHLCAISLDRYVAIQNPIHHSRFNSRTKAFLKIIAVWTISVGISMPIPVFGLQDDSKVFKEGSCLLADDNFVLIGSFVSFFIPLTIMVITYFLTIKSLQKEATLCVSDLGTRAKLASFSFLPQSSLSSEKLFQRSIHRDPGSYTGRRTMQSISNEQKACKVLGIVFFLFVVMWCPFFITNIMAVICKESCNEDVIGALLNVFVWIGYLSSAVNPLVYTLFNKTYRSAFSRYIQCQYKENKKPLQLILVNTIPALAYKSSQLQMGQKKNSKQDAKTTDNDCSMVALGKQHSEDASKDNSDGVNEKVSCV

Chain of 5-hydroxytryptamine receptor 2A (Rattus norvegicus, UniProt P14842) (P14842 whole entry): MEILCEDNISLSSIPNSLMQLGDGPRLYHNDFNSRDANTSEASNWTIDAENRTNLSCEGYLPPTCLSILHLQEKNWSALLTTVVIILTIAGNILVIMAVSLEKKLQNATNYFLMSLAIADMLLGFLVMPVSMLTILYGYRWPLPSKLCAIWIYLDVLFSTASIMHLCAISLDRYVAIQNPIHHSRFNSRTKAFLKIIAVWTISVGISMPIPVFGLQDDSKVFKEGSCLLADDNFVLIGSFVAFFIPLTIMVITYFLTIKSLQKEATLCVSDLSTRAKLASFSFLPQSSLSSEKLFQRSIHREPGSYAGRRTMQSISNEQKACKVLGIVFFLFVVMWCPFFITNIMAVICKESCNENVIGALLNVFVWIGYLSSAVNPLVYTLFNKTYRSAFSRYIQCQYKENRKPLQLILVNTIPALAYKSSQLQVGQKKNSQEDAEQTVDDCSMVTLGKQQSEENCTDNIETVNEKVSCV
Chain of 5-hydroxytryptamine receptor 2A (Sus scrofa, UniProt P50129) (P50129 whole entry): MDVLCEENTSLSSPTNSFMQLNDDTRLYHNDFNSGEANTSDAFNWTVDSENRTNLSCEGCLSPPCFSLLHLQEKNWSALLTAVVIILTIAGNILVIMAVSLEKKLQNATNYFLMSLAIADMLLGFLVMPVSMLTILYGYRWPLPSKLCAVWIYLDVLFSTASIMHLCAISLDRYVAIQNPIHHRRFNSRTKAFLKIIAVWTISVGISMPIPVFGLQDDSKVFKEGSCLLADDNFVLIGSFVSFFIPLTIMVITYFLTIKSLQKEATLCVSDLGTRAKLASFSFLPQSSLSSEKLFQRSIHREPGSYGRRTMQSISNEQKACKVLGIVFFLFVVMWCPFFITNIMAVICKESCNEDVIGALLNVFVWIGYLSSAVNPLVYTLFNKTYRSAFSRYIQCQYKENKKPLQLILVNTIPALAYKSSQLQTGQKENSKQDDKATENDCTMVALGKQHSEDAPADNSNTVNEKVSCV

`NCCc1c[nH]c2ccc(Br)cc12` gave a Ki [1] of 3240 nM and a Ki [2] of 1520 nM.

Compound `CC(O)C(C)OC(=O)[C@@H]1C[C@@H]2c3cccc4c3c(cn4C)C[C@H]2N(C)C1` (stereo partly specified) [1,6-Dimethylergoline-8-carboxylic acid 2-hydroxy-1-methylpropyl ester] has a Ki [3] of 57.2 nM, a Ki [1] of 9.3 nM and a Ki [4] of 56.8 nM.

`COc1ccc2c(c1)c(CCN)cn2C(C)C` [1-Isopropyl-5-Methoxytryptamine] was tested, and the Ki [3] was 7290 nM and the Ki [1] was 3560 nM.

In the case of `Cc1ccc2c(c1)c(CCN)cn2C(C)C` [1-Isopropyl-5-Methyltryptamine], the Ki [1] is reported as 4680 nM and the Ki [2] is reported as over 10000 nM.

`CC(C)n1cc(CCN)c2ccccc21` [1-Isopropyltryptamine] gave a Ki [3] of 5720 nM, a Ki [1] of 3860 nM and a Ki [2] of 7030 nM.

Work on `NCCc1c[nH]c2ccccc12` [1H-indole-3-ethanamine] yielded a Ki [3] of 3390 nM, a Ki [1] of over 10000 nM and a Ki [2] of 3000 nM.

With `CC(C)n1cc(CCN)c2cc(Br)ccc21` [5-Br-T, 1-Isopropyl] the Ki [1] was 3440 nM and the Ki [2] was 6240 nM.

Work on `Cc1ccc2[nH]cc(CCN)c2c1` [5-Methyl-tryptamine, 10] yielded a Ki [1] of 6150 nM and a Ki [2] of 3220 nM.

Compound `CC(CO)NC(=O)C1C=C2c3cccc4[nH]cc(c34)CC2N(C)C1` (stereo unspecified) [CAS_60-79-7] has a Ki [3] of 3.8 nM, a Ki [1] of 46.4 nM and a Ki [2] of 31.1 nM. The Ki [4] was 3.4 nM.

In the case of `CC(O)C(C)OC(=O)C1CC2c3cccc4c3c(cn4C(C)C)CC2N(C)C1` (stereo unspecified) [CAS_60634-51-7], the Ki [3] is reported as 40 nM, the Ki [1] is reported as 7.2 nM and the Ki [2] is reported as 30.6 nM. For the same compound, the Ki [4] was 33.1 nM.

`CC(O)C(C)OC(=O)C1CC2c3cccc4[nH]cc(c34)CC2N(C)C1` (stereo unspecified) [LY86057] was tested, and the Ki [3] was 4.6 nM, the Ki [1] was 55.9 nM and the Ki [2] was 3.3 nM. It also gave a Ki [4] of 3.2 nM.

`CN1C[C@H](C(=O)NC2CCCCC2)C[C@@H]2c3cccc4[nH]cc(c34)C[C@H]21` [LY-193525] showed a Ki [3] of 3.6 nM, a Ki [1] of 41.6 nM and a Ki [4] of 2.1 nM.

Work on `CC(C)Cn1cc2c3c(cccc31)[C@H]1C[C@@H](C(=O)OC(C)C(C)O)CN(C)[C@@H]1C2` (stereo partly specified) [LY-197541] yielded a Ki [3] of 148 nM, a Ki [1] of 242 nM and a Ki [4] of 153 nM.

`COC1CCC(OC(=O)[C@@H]2C[C@@H]3c4cccc5[nH]cc(c45)C[C@H]3N(C)C2)CC1` (stereo partly specified) [LY-254239] showed a Ki [1] of 42 nM.

In the case of `CN1C[C@@H](NS(=O)(=O)N(C)C)C[C@@H]2c3cccc4c3c(cn4C)C[C@H]21` [MESULERGINE], the Ki [3] is reported as 54.2 nM and the Ki [4] is reported as 44.9 nM.

`CN1C[C@H](CNC(=O)OCc2ccccc2)C[C@@H]2c3cccc4c3c(cn4C)C[C@H]21` [METERGOLINE] showed a Ki [3] of 0.37 nM and a Ki [4] of 0.82 nM.

With `CN1C[C@H](C(=O)N[C@@H]2CCC[C@@H]2O)C[C@@H]2c3cccc4[nH]cc(c34)C[C@H]21` [N-[(1R,2S)-2-Hydroxycyclopentyl]-6-methylergoline-8-beta-carboxamide] the Ki [1] was 64.4 nM.

For `COC1CCC(OC(=O)C2CC3c4cccc5c4c(cn5C(C)C)CC3N(C)C2)CC1` (stereo unspecified) [NSC_60262], the Ki [1] was 10.9 nM.

Work on `CC(C)n1cc2c3c(cccc31)C1CC(C(=O)NC3CCCCC3)CN(C)C1C2` (stereo unspecified) [NSC_60740] yielded a Ki [3] of 30.7 nM, a Ki [1] of 6.9 nM and a Ki [4] of 26.5 nM.

`CC(C)n1cc2c3c(cccc31)C1CC(C(=O)NC3CCCC3O)CN(C)C1C2` (stereo unspecified) [NSC_132049] was tested, and the Ki [1] was 5.8 nM and the Ki [2] was 27.7 nM.

`COc1ccc2[nH]cc(CCN)c2c1` [tryptamine, 5-Methoxy] gave a Ki [3] of 923 nM and a Ki [2] of 943 nM.
